Assay results as given in patent US10150760B2, “Compounds for use in preparing heterocyclic triazole agonists of the APJ receptor” (AMGEN INC., priority 2016, dated 2018).

Target: human APJ receptor (Homo sapiens (Human), UniProt P35414)
Assay: [35S]GTPγS binding assay on membranes from CHO cells stably expressing human APJ receptor
Type: biochemical
Settings: read-out: Activity hAPJ SPA EC50 IP
Outline: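 Agonist-driven [35S]GTPγS (0.2 nM) binding was measured over 90 min at room temperature on human APJ-expressing CHO membranes with bead capture, in buffer containing 3 μM GDP, 200 mM NaCl and 5 mM MgCl2 (pH 7.5). Excess unlabelled GTPγS (100 μM) gave nonspecific signal; EC50 from non-linear fits.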

Chain of human APJ receptor (P35414 whole entry): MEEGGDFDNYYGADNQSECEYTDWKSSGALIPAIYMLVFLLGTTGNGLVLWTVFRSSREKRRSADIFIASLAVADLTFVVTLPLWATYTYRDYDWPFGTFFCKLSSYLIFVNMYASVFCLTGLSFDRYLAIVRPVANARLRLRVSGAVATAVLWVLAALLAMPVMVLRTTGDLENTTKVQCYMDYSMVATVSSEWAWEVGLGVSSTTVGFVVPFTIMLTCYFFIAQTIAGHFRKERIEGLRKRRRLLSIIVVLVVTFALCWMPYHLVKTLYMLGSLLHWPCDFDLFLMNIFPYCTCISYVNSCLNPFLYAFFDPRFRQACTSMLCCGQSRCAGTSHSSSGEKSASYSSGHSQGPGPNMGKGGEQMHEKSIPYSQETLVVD

Compound	EC50 [µM]
COc1cccc(OC)c1-n1c(NS(=O)(=O)CCc2ccc(Cl)cc2)nnc1[C@@H]1CCCO1 (single isomer, unassigned) [Example 144.0, (S)-2-(4-Chlorophenyl)-N-(4-(2,6-dimethoxyphenyl)-5-(tetrahydrofuran-2-yl)-4H-1,2,4-triazol-3-yl)ethanesulfonamide or (R)-2-(4-chlorophenyl)-N-(4-(2,6-dimethoxyphenyl)-5-(tetrahydrofuran-2-yl)-4H-1,2,4-triazol-3-yl)ethanesulfonamide]	0.08
COc1cccc(OC)c1-n1c(NS(=O)(=O)CCc2ccc(Cl)cc2)nnc1[C@@H]1CCCO1 (single isomer, unassigned) [Example 145.0, (S)-2-(4-Chlorophenyl)-N-(4-(2,6-dimethoxyphenyl)-5-(tetrahydrofuran-2-yl)-4H-1,2,4-triazol-3-yl)ethanesulfonamide or (R)-2-(4-chlorophenyl)-N-(4-(2,6-dimethoxyphenyl)-5-(tetrahydrofuran-2-yl)-4H-1,2,4-triazol-3-yl)ethanesulfonamide]	0.83
COc1cccc(OC)c1-n1c(NS(=O)(=O)CCc2ccc(F)cc2C#N)nnc1[C@@H]1CCCO1 (single isomer, unassigned) [Example 147.0, (S)-2-(2-Cyano-4-fluorophenyl)-N-(4-(2,6-dimethoxyphenyl)-5-(tetrahydrofuran-2-yl)-4H-1,2,4-triazol-3-yl)ethanesulfonamide or (R)-2-(2-cyano-4-fluorophenyl)-N-(4-(2,6-dimethoxyphenyl)-5-(tetrahydrofuran-2-yl)-4H-1,2,4-triazol-3-yl)ethanesulfonamide]	0.037
COc1cccc(OC)c1-n1c(NS(=O)(=O)CCc2ccc(F)cc2C#N)nnc1[C@@H]1CCCO1 (single isomer, unassigned) [Example 148.0, (S)-2-(2-Cyano-4-fluorophenyl)-N-(4-(2,6-dimethoxyphenyl)-5-(tetrahydrofuran-2-yl)-4H-1,2,4-triazol-3-yl)ethanesulfonamide or (R)-2-(2-cyano-4-fluorophenyl)-N-(4-(2,6-dimethoxyphenyl)-5-(tetrahydrofuran-2-yl)-4H-1,2,4-triazol-3-yl)ethanesulfonamide]	0.68
COc1cccc(OC)c1-n1c(NS(=O)(=O)[C@@H](C)[C@H](C)c2ncc(C#N)cn2)nnc1[C@H]1CCOC1 (single isomer, unassigned) [Example 173.0, (2S,3R)-3-(5-cyano-2-pyrimidin-yl)-N-(4-(2,6-dimethoxyphenyl)-5-((3R)-tetrahydro-3-furanyl)-4H-1,2,4-triazol-3-yl)-2-butanesulfonamide or (2S,3R)-3-(5-cyano-2-pyrimidinyl)-N-(4-(2,6-dimethoxyphenyl)-5-((3S)-tetrahydro-3-furanyl)-4H-1,2,4-triazol-3-yl)-2-butanesulfonamide]	0.13
COc1cccc(OC)c1-n1c(NS(=O)(=O)[C@@H](C)[C@H](C)c2ncc(C#N)cn2)nnc1[C@H]1CCOC1 (single isomer, unassigned) [Example 174.0, (2S,3R)-3-(5-cyano-2-pyrimidin-yl)-N-(4-(2,6-dimethoxyphenyl)-5-((3R)-tetrahydro-3-furanyl)-4H-1,2,4-triazol-3-yl)-2-butanesulfonamide or (2S,3R)-3-(5-cyano-2-pyrimidinyl)-N-(4-(2,6-dimethoxyphenyl)-5-((3S)-tetrahydro-3-furanyl)-4H-1,2,4-triazol-3-yl)-2-butanesulfonamide]	0.21
COc1cnc([C@@H](C)[C@H](C)S(=O)(=O)Nc2nnc([C@@H]3COCCO3)n2-c2c(OC)cccc2OC)nc1 (single isomer, unassigned) [Example 175.0, (2S,3R)-N-(4-(2,6-dimethoxyphenyl)-5-((2R)-1,4-dioxan-2-yl)-4H-1,2,4-triazol-3-yl)-3-(5-methoxy-2-pyrimidinyl)-2-butanesulfonamide or (2S,3R)-N-(4-(2,6-dimethoxyphenyl)-5-((2S)-1,4-dioxan-2-yl)-4H-1,2,4-triazol-3-yl)-3-(5-methoxy-2-pyrimidinyl)-2-butanesulfonamide]	0.0035
COc1cnc([C@@H](C)[C@H](C)S(=O)(=O)Nc2nnc([C@@H]3COCCO3)n2-c2c(OC)cccc2OC)nc1 (single isomer, unassigned) [Example 176.0, (2S,3R)-N-(4-(2,6-dimethoxyphenyl)-5-((2R)-1,4-dioxan-2-yl)-4H-1,2,4-triazol-3-yl)-3-(5-methoxy-2-pyrimidinyl)-2-butanesulfonamide or (2S,3R)-N-(4-(2,6-dimethoxyphenyl)-5-((2S)-1,4-dioxan-2-yl)-4H-1,2,4-triazol-3-yl)-3-(5-methoxy-2-pyrimidinyl)-2-butanesulfonamide]	0.034
COc1cnc([C@@H](C)[C@H](C)S(=O)(=O)Nc2nnc([C@@H]3COCCO3)n2-c2c(OC)ncnc2OC)nc1 (single isomer, unassigned) [Example 177.0, (2S,3R)-N-(4,-(4,6-dimethoxy-5-pyrimidinyl)-5-((2R)-1,4-dioxan-2-yl)-4H-1,2,4-triazol-3-yl)-3-(5-methoxy-2-pyrimidinyl)-2-butanesulfonamide or (2S,3R)-N-(4-(4,6-dimethoxy-5-pyrimidinyl)-5-((2S)-1,4-dioxan-2-yl)-4H-1,2,4-triazol-3-yl)-3-(5-methoxy-2-pyrimidinyl)-2-butanesulfonamide]	0.095
COc1cnc([C@@H](C)[C@H](C)S(=O)(=O)Nc2nnc([C@@H]3COCCO3)n2-c2c(OC)ncnc2OC)nc1 (single isomer, unassigned) [Example 178.0, (2S,3R)-N-(4-(4,6-dimethoxy-5-pyrimidinyl)-5-((2R)-1,4-dioxan-2-yl)-4H-1,2,4-triazol-3-yl)-3-(5-methoxy-2-pyrimidinyl)-2-butanesulfonamide or (2S,3R)-N-(4-(4,6-dimethoxy-5-pyrimidinyl)-5-((2S)-1,4-dioxan-2-yl)-4H-1,2,4-triazol-3-yl)-3-(5-methoxy-2-pyrimidinyl)-2-butanesulfonamide]	0.29
COc1ncnc(OC)c1-n1c(NS(=O)(=O)[C@@H](C)[C@H](C)c2ncc(Cl)cn2)nnc1[C@@H]1CCCCO1 (single isomer, unassigned) [Example 191.0, (2S,3R)-3-(5-chloropyrimidin-2-yl)-N-(4-(4,6-dimethoxypyrimidin-5-yl)-5-((S)-tetrahydro-2H-pyran-2-yl)-4H-1,2,4-triazol-3-yl)butane-2-sulfonamide or (2S,3R)-3-(5-chloropyrimidin-2-yl)-N-(4-(4,6-dimethoxypyrimidin-5-yl)-5-((R)-tetrahydro-2H-pyran-2-yl)-4H-1,2,4-triazol-3-yl)butane-2-sulofnamide]	0.0041
COc1ncnc(OC)c1-n1c(NS(=O)(=O)[C@@H](C)[C@H](C)c2ncc(Cl)cn2)nnc1[C@@H]1CCCCO1 (single isomer, unassigned) [Example 192.0, (2S,3R)-3-(5-chloropyrimidin-2-yl)-N-(4-(4,6-dimethoxypyrimidin-5-yl)-5-((S)-tetrahydro-2H-pyran-2-yl)-4H-1,2,4-triazol-3-yl)butane-2-sulfonamide or (2S,3R)-3-(5-chloropyrimidin-2-yl)-N-(4-(4,6-dimethoxypyrimidin-5-yl)-5-((R)-tetrahydro-2H-pyran-2-yl)-4H-1,2,4-triazol-3-yl)butane-2-sulfonamide]	0.001
COc1ncnc(OC)c1-n1c(NS(=O)(=O)[C@@H](C)[C@H](C)c2ncc(Cl)cn2)nnc1[C@@H]1COCCO1 (single isomer, unassigned) [Example 196.0, (2S,3R)-3-(5-chloropyrimidin-2-yl)-N-(4-(4,6-dimethoxypyrimidin-5-yl)-5-((R)-1,4-dioxan-2-yl)-4H-1,2,4-triazol-3-yl)butane-2-sulfonamide or (2S,3R)-3-(5-chloropyrimidin-2-yl)-N-(4-(4,6-dimethoxypyrimidin-5-yl)-5-((S)-1,4-dioxan-2-yl)-4H-1,2,4-triazol-3-yl)butane-2-sulfonamide]	0.13
COc1cccc(OC)c1-n1c(NS(=O)(=O)[C@@H](C)[C@H](C)c2ncc(C)cn2)nnc1[C@H]1CN(S(C)(=O)=O)CCO1 (single isomer, unassigned) [Example 230.0]	0.45
COc1cccc(OC)c1-n1c(NS(=O)(=O)[C@@H](C)[C@H](C)c2ncc(C)cn2)nnc1[C@H]1CN(S(C)(=O)=O)CCO1 (single isomer, unassigned) [Example 231.0]	0.88
COc1ncnc(OC)c1-n1c(NS(=O)(=O)[C@@H](C)[C@H](OC)c2ncc(C)cn2)nnc1[C@@H]1Cc2ccccc2O1 (single isomer, unassigned) [Example 232.0, (1R,2S)-N-(5-((S)-2,3-dihydrobenzofuran-2-yl)-4-(4,6-dimethoxypyrimidin-5-yl)-4H-1,2,4-triazol-3-yl)-1-methoxy-1-(5-methylpyrimidin-2-yl)propane-2-sulfonamide or (1R,2S)-N-(5-((R)-2,3-dihydrobenzofuran-2-yl)-4-(4,6-dimethoxypyrimidin-5-yl)-4H-1,2,4-triazol-3-yl)-1-methoxy-1-(5-methylpyrimidin-2-yl)propane-2-sulfonamide]	0.22
C[C@H](c1ncc(Cl)cn1)[C@H](C)S(=O)(=O)Nc1nnc([C@@H]2COCCO2)n1C1CCOCC1 (single isomer, unassigned) [Example 245.0, (2S,3R)-3-(5-chloro-2-pyrimidinyl)-N-(5-((2R)-1,4-dioxan-2-yl)-4-(tetrahydro-2H-pyran-4-yl)-4H-1,2,4-triazol-3-yl)-2-butanesulfonamide or (2S,3R)-3-(5-chloro-2-pyrimidinyl)-N-(5-((2S)-1,4-dioxan-2-yl)-4-(tetrahydro-2H-pyran-4-yl)-4H-1,2,4-triazol-3-yl)-2-butanesulfonamide]	0.62
